From patent publication US8063071B2 (GlaxoSmithKline, LLC, priority 2007, dated 2011)
Where a name gives a salt, the structure may show the parent alone.

The molecules below were run against T1, Recombinant human IKKβ (residues 1-737) (Homo sapiens, UniProt O14920) (assay: IKK2 assay (TR-FRET)). Details: ATP 1 μM final, read-out: pIC50 against IKK2 (converted).
T1 construct: Recombinant human IKKβ (residues 1-737); GST (C); made in house
T1 sequence (O14920 1-737): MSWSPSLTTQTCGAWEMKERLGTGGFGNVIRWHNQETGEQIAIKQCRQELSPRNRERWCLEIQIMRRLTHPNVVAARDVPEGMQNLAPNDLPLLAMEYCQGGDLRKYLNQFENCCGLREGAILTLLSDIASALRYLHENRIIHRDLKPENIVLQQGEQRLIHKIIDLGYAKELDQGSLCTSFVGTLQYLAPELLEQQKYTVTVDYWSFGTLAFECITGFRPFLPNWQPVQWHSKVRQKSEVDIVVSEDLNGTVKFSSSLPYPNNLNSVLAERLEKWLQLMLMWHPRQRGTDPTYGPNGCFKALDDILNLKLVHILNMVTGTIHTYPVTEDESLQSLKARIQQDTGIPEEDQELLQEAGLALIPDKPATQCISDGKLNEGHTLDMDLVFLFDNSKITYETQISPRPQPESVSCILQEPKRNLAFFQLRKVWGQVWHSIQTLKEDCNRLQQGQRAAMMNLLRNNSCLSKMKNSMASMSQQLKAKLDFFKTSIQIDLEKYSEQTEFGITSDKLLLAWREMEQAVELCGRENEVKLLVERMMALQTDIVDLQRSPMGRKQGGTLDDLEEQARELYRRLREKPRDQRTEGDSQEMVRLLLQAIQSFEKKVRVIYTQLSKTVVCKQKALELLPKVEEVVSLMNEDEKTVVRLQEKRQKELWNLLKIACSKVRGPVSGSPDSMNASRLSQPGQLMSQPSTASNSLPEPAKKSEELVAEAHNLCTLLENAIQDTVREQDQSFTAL
Assay type: biochemical
Protocol: Recombinant human IKKβ (residues 1-737) was expressed in baculovirus as a C-terminal GST-tagged fusion protein, and its activity was assessed using a time-resolved fluorescence resonance energy transfer (TR-FRET) assay. Briefly, IKK2 (0.5 nM-5 nM final) diluted in assay buffer (50 mM HEPES, 10 mM MgCl2, 1 mM CHAPS pH 7.4 with 1 mM DTT and 0.01% w/v BSA) was added to wells containing various concentrations of compound or DMSO vehicle (1.7% final). The reaction was initiated by the addition of GST-IB substrate (25 nM final)/ATP (1 μM final), in a total volume of 6 μl. The reaction was incubated for 15 minutes at room temperature, then terminated by the addition of 3 μl of detection reagent in buffer containing 50 mM EDTA (100 mM HEPES pH 7.4, 150 mM NaCl, 50 mM EDTA and 0.01% w/v BSA) containing antiphosphoserine-IB-32/36 monoclonal antibody 12C2 (Cell Signalling Technology, Beverly Mass., USA) labelled with W-1024 europium chelate (Wallac OY, Turku, Finland), and an APC-labelled anti-GST antibody (Prozyme, San Leandro, Calif., USA) was added and the reaction was further incubated for 60 minutes at room temperature. The degree of phosphorylation of GST-IB was measured using a BMG Rubystar plate reader (BMG Labtech, Aylesbury, UK) as a ratio of specific 665 nm energy transfer signal to reference europium 620 nm signal.

IC50, ≤ 10 µM:
CCS(=O)(=O)N1CCC(c2c[nH]c3c(C(N)=O)cc(-c4cc(F)cc(CNCC(C)C)c4)cc23)CC1 [Example 286, 3-[1-(ethylsulfonyl)-4-piperidinyl]-5-(3-fluoro-5-{[(2-methylpropyl)amino]methyl}phenyl)-1H-indole-7-carboxamide trifluoroacetate]
CCS(=O)(=O)N1CCC(c2c[nH]c3c(C(N)=O)cc(-c4cc(F)cc(CNC5CCC5)c4)cc23)CC1 [Example 287, 5-{3-[(cyclobutylamino)methyl]-5-fluorophenyl}-3-[1-(ethylsulfonyl)-4-piperidinyl]-1H-indole-7-carboxamide trifluoroacetate]
CCS(=O)(=O)N1CCC(c2c[nH]c3c(C(N)=O)cc(-c4cc(F)cc(CN(C)C)c4)cc23)CC1 [Example 288, 5-{3-[(dimethylamino)methyl]-5-fluorophenyl}-3-[1-(ethylsulfonyl)-4-piperidinyl]-1H-indole-7-carboxamide trifluoroacetate]
CCS(=O)(=O)N1CCC(c2c[nH]c3c(C(N)=O)cc(-c4cc(F)cc(CN5CCCC5)c4)cc23)CC1 [Example 289, 3-[1-(ethylsulfonyl)-4-piperidinyl]-5-[3-fluoro-5-(1-pyrrolidinylmethyl)phenyl]-1H-indole-7-carboxamide trifluoroacetate]
CCS(=O)(=O)N1CCC(c2c[nH]c3c(C(N)=O)cc(-c4cc(F)cc(CN5CCOCC5)c4)cc23)CC1 [Example 290, 3-[1-(ethylsulfonyl)-4-piperidinyl]-5-[3-fluoro-5-(4-morpholinylmethyl)phenyl]-1H-indole-7-carboxamide trifluoroacetate]
CCS(=O)(=O)N1CCC(c2c[nH]c3c(C(N)=O)cc(-c4cc(F)cc(CN5CCCCC5)c4)cc23)CC1 [Example 291, 3-[1-(ethylsulfonyl)-4-piperidinyl]-5-[3-fluoro-5-(1-piperidinylmethyl)phenyl]-1H-indole-7-carboxamide trifluoroacetate]
CCS(=O)(=O)N1CCC(c2c[nH]c3c(C(N)=O)cc(-c4csc(CN5CCCCC5)n4)cc23)CC1 [Example 354, 3-[1-(ethylsulfonyl)-4-piperidinyl]-5-[2-(1-piperidinylmethyl)-1,3-thiazol-4-yl]-1H-indole-7-carboxamide]
CCS(=O)(=O)N1CCC(c2c[nH]c3c(C(N)=O)cc(-c4cccc(CNS(=O)(=O)c5csc6ccccc56)c4)cc23)CC1 [Example 382, 5-(3-{[(1-benzothien-3-ylsulfonyl)amino]methyl}phenyl)-3-[1-(ethylsulfonyl)-4-piperidinyl]-1H-indole-7-carboxamide]
CCS(=O)(=O)N1CCC(c2c[nH]c3c(C(N)=O)cc(-c4cccc(CNS(=O)(=O)c5ccc(F)c(F)c5)c4)cc23)CC1 [Example 384, 5-[3-({[(3,4-difluorophenyl)sulfonyl]amino}methyl)phenyl]-3-[1-(ethylsulfonyl)-4-piperidinyl]-1H-indole-7-carboxamide]
CCS(=O)(=O)N1CCC(c2c[nH]c3c(C(N)=O)cc(-c4ccc(NS(=O)(=O)C5CCCC5)cc4)cc23)CC1 [Example 387, 5-{4-[(cyclopentylsulfonyl)amino]phenyl}-3-[1-(ethylsulfonyl)-4-piperidinyl]-1H-indole-7-carboxamide trifluoroacetate]
CCS(=O)(=O)N1CCC(c2c[nH]c3c(C(N)=O)cc(-c4cccc(CNOC)c4)cc23)CC1 [Example 391, 3-[1-(ethylsulfonyl)-4-piperidinyl]-5-(3-{[(methyloxy)amino]methyl}phenyl)-1H-indole-7-carboxamide]
CC(C)S(=O)(=O)N1CCC(c2c[nH]c3c(C(N)=O)cc(-c4csc(CN(C)CC(N)=O)c4)cc23)CC1 [Example 398, 5-(5-{[(2-amino-2-oxoethyl)(methyl)amino]methyl}-3-thienyl)-3-{1-[(1-methylethyl)sulfonyl]-4-piperidinyl}-1H-indole-7-carboxamide]
CCS(=O)(=O)N1CCC(c2c[nH]c3c(C(N)=O)cc(-c4csc(CN5CCCC5COC)c4)cc23)CC1 (centres unmarked) [Example 405, 3-[1-(ethylsulfonyl)-4-piperidinyl]-5-[5-({2-[(methyloxy)methyl]-1-pyrrolidinyl}methyl)-3-thienyl]-1H-indole-7-carboxamide trifluoroacetate]
CCS(=O)(=O)N1CCC(c2c[nH]c3c(C(N)=O)cc(-c4csc(CN5CCCC(C(F)(F)F)C5)c4)cc23)CC1 (centres unmarked) [Example 407, 3-[1-(ethylsulfonyl)-4-piperidinyl]-5-(5-{[3-(trifluoromethyl)-1-piperidinyl]methyl}-3-thienyl)-1H-indole-7-carboxamide trifluoroacetate]
CCS(=O)(=O)N1CCC(c2c[nH]c3c(C(N)=O)cc(-c4csc(CN(C)CCNC(C)=O)c4)cc23)CC1 [Example 410, 5-(5-{[[2-(acetylamino)ethyl](methyl)amino]methyl}-3-thienyl)-3-[1-(ethylsulfonyl)-4-piperidinyl]-1H-indole-7-carboxamide trifluoroacetate]
CCS(=O)(=O)N1CCC(c2c[nH]c3c(C(N)=O)cc(-c4csc(CN(C)[C@@H]5CCC[C@H]5O)c4)cc23)CC1 [Example 411, 3-[1-(ethylsulfonyl)-4-piperidinyl]-5-(5-{[[(1R,2R)-2-hydroxycyclopentyl](methyl)amino]methyl}-3-thienyl)-1H-indole-7-carboxamide trifluoroacetate]
CCS(=O)(=O)N1CCC(c2c[nH]c3c(C(N)=O)cc(-c4csc(CN(C)C[C@H](C)O)c4)cc23)CC1 [Example 413, 3-[1-(ethylsulfonyl)-4-piperidinyl]-5-(5-{[[(2S)-2-hydroxypropyl](methyl)amino]methyl}-3-thienyl)-1H-indole-7-carboxamide trifluoroacetate]
CCS(=O)(=O)N1CCC(c2c[nH]c3c(C(N)=O)cc(-c4csc(CN(C)C[C@H]5CCCO5)c4)cc23)CC1 [Example 414, 3-[1-(ethylsulfonyl)-4-piperidinyl]-5-[5-({methyl[(2R)-tetrahydro-2-furanylmethyl]amino}methyl)-3-thienyl]-1H-indole-7-carboxamide trifluoroacetate]
CCS(=O)(=O)N1CCC(c2c[nH]c3c(C(N)=O)cc(-c4csc(CN(C)CCOCCO)c4)cc23)CC1 [Example 415, 3-[1-(ethylsulfonyl)-4-piperidinyl]-5-(5-{[{2-[(2-hydroxyethyl)oxy]ethyl}(methyl)amino]methyl}-3-thienyl)-1H-indole-7-carboxamide trifluoroacetate]
CCS(=O)(=O)N1CCC(c2c[nH]c3c(C(N)=O)cc(-c4ccc5c(c4)CN(C(C)C(C)C)C5)cc23)CC1 (centres unmarked) [Example 421, 5-[2-(1,2-dimethylpropyl)-2,3-dihydro-1H-isoindol-5-yl]-3-[1-(ethylsulfonyl)-4-piperidinyl]-1H-indole-7-carboxamide]
CCC(C)N1Cc2ccc(-c3cc(C(N)=O)c4[nH]cc(C5CCN(S(=O)(=O)CC)CC5)c4c3)cc2C1 (centres unmarked) [Example 422, 3-[1-(ethylsulfonyl)-4-piperidinyl]-5-[2-(1-methylpropyl)-2,3-dihydro-1H-isoindol-5-yl]-1H-indole-7-carboxamide]
CCC(CC)N1Cc2ccc(-c3cc(C(N)=O)c4[nH]cc(C5CCN(S(=O)(=O)CC)CC5)c4c3)cc2C1 [Example 423, 5-[2-(1-ethylpropyl)-2,3-dihydro-1H-isoindol-5-yl]-3-[1-(ethylsulfonyl)-4-piperidinyl]-1H-indole-7-carboxamide]
CCS(=O)(=O)N1CCC(c2c[nH]c3c(C(N)=O)cc(-c4ccc5c(c4)CN(C4CCCC4)C5)cc23)CC1 [Example 424, 5-(2-cyclopentyl-2,3-dihydro-1H-isoindol-5-yl)-3-[1-(ethylsulfonyl)-4-piperidinyl]-1H-indole-7-carboxamide]
